From patent US11883503B2, “Methods and compositions for cancer treatment” (DINGFU BIOTARGET CO., LTD., priority 2017, dated 2024)

System: peripheral blood lymphocytes
Test: Flow cytometry of CD4+ and CD8+ lymphocytes in peripheral blood after FTY720
Format: in vivo, mice
Settings: 3 days after first administration of FTY720
Protocol: FTY720 (SIGMA, Cat #SML0700-5MG) was used to test activation of T cells in the tumor microenvironment. FTY720 is a lipophilic immunomodulatory sphingosine-1-phosphate analog, it induces severe peripheral blood lymphopenia and sustains lymphopenia in mice by preventing lymphocytes to egress from lymph organs through agonist-induced receptor internalization.
B16-EGFR-SIY cells were inoculated s.c. into the both flanks of mice. […] Then 3 days later, after the first administration of depletion antibodies or FTY720, lymphocytes suspensions were prepared from their peripheral blood, and labeled with APC-anti-mCD4 (clone GK1.5, BioLegend), FITC-anti-mCD8a (clone 53-6.7, BioLegend), FITC-anti-mCD3 (clone 17A2, BioLegend), or APC-anti-mNK1.1 (clone PK136, BioLegend). Tumor volumes on the both flanks were measured and monitored. Samples were analyzed on a Life Attune Flow Cytometer (Life), and data were analyzed. Representative data is shown in FIG. 6C-6F, based on results obtained from three experiments conducted with 5-6 mice per group.

`CCCCCCCCc1ccc(CCC(N)(CO)CO)cc1` [FTY720] was tested, and the “relative number of CD4+ T cells in peripheral blood” value was ~1.5% and the “relative number of CD8+ T cells in peripheral blood” value was “about 0.5%”.
